How the values were obtained:
[1] = system: HT29; assay type: cell-based; settings: Homo sapiens, HT-29, one dose 10^-5 M, 48 h
[2] = system: HL-60(TB); assay type: cell-based; settings: Homo sapiens, one dose 10^-5 M, 48 h
[3] = system: SK-OV-3; assay type: cell-based; settings: Homo sapiens, one dose 10^-5 M, 48 h
[4] = system: MDA-MB-435; assay type: cell-based; settings: Homo sapiens, one dose 10^-5 M, 48 h, read-out: % growth
[5] = system: HOP-92; assay type: cell-based; settings: Homo sapiens, one dose 10^-5 M, 48 h
[6] = system: NCI-H460; assay type: cell-based; settings: Homo sapiens, one dose 10^-5 M, 48 h, read-out: % growth
[7] = system: U251; assay type: cell-based; settings: Homo sapiens, U-251, one dose 10^-5 M, 48 h
[8] = system: OVCAR-3; assay type: cell-based; settings: Homo sapiens, one dose 10^-5 M, 48 h
[9] = system: DU-145; assay type: cell-based; settings: Homo sapiens, one dose 10^-5 M, 48 h
[10] = system: SK-MEL-2; assay type: cell-based; settings: Homo sapiens, one dose 10^-5 M, 48 h
[11] = system: CAKI-1; assay type: cell-based; settings: Homo sapiens, CAKI-1, 48 h, one dose 10^-5 M, 48 h
[12] = system: SF-295; assay type: cell-based; settings: Homo sapiens, one dose 10^-5 M, 48 h
[13] = system: TK-10; assay type: cell-based; settings: Homo sapiens, one dose 10^-5 M, 48 h
[14] = system: K-562; assay type: cell-based; settings: Homo sapiens, K562, one dose 10^-5 M, 48 h
[15] = system: IGROV1; assay type: cell-based; settings: Homo sapiens, IGROV-1, one dose 10^-5 M, 48 h, read-out: % growth
[16] = system: BT-549; assay type: cell-based; settings: Homo sapiens, one dose 10^-5 M, 48 h
[17] = system: full NCI 60 cell lines panel
[18] = system: MDA-MB-231/ATCC; assay type: cell-based; settings: Homo sapiens, one dose 10^-5 M, 48 h
[19] = system: HCC-2998; assay type: cell-based; settings: Homo sapiens, one dose 10^-5 M, 48 h
[20] = system: SNB-75; assay type: cell-based; settings: Homo sapiens, one dose 10^-5 M, 48 h
[21] = system: UACC-257; assay type: cell-based; settings: Homo sapiens, one dose 10^-5 M, 48 h
[22] = system: ACHN; assay type: cell-based; settings: Homo sapiens, one dose 10^-5 M, 48 h
[23] = system: T-47D; assay type: cell-based; settings: Homo sapiens, T47D, one dose 10^-5 M, 48 h, read-out: % growth
[24] = system: UACC-62; assay type: cell-based; settings: Homo sapiens, one dose 10^-5 M, 48 h
[25] = system: UO-31; assay type: cell-based; settings: Homo sapiens, UO-31, 48 h, one dose 10^-5 M, 48 h
[26] = system: A549/ATCC; assay type: cell-based; settings: Homo sapiens, one dose 10^-5 M, 48 h
[27] = system: HOP-62; assay type: cell-based; settings: Homo sapiens, one dose 10^-5 M, 48 h
[28] = system: NCI-H23; assay type: cell-based; settings: Homo sapiens, one dose 10^-5 M, 48 h, read-out: % growth
[29] = system: LOX IMVI; assay type: cell-based; settings: Homo sapiens, one dose 10^-5 M, 48 h, read-out: % growth
[30] = system: SF-539; assay type: cell-based; settings: Homo sapiens, one dose 10^-5 M, 48 h
[31] = system: SW-620; assay type: cell-based; settings: Homo sapiens, one dose 10^-5 M, 48 h
[32] = system: MDA-MB-468; assay type: cell-based; settings: Homo sapiens, one dose 10^-5 M, 48 h
[33] = system: MCF7; assay type: cell-based; settings: Homo sapiens, one dose 10^-5 M, 48 h, read-out: % growth
[34] = system: KM12; assay type: cell-based; settings: Homo sapiens, one dose 10^-5 M, 48 h
[35] = system: MOLT-4; assay type: cell-based; settings: Homo sapiens, one dose 10^-5 M, 48 h, read-out: % growth
[36] = system: SN12C; assay type: cell-based, human; settings: Homo sapiens, one dose 10^-5 M, 48 h
[37] = system: NCI-H522; assay type: cell-based; settings: Homo sapiens, one dose 10^-5 M, 48 h
[38] = system: SR; assay type: cell-based; settings: Homo sapiens, one dose 10^-5 M, 48 h
[39] = system: MALME-3M; assay type: cell-based; settings: Homo sapiens, one dose 10^-5 M, 48 h
[40] = system: HS 578T; assay type: cell-based; settings: Homo sapiens; one dose 10^-5 M, 48 h; HS 578T; read-out: % growth
[41] = system: RPMI-8226; assay type: cell-based; settings: Homo sapiens, one dose 10^-5 M, 48 h
[42] = system: OVCAR-8; assay type: cell-based; settings: Homo sapiens, one dose 10^-5 M, 48 h
[43] = system: OVCAR-5; assay type: cell-based; settings: Homo sapiens, one dose 10^-5 M, 48 h
[44] = system: COLO 205; assay type: cell-based; settings: Homo sapiens, one dose 10^-5 M, 48 h
[45] = system: SNB-19; assay type: cell-based; settings: Homo sapiens, one dose 10^-5 M, 48 h, read-out: % growth
[46] = system: NCI-H226; assay type: cell-based; settings: Homo sapiens, one dose 10^-5 M, 48 h
[47] = system: SK-MEL-28; assay type: cell-based; settings: Homo sapiens, one dose 10^-5 M, 48 h
[48] = system: 786-0; assay type: cell-based; settings: Homo sapiens, one dose 10^-5 M, 48 h
[49] = system: HCT-15; assay type: cell-based; settings: Homo sapiens, one dose 10^-5 M, 48 h, read-out: % growth
[50] = system: PC-3; assay type: cell-based; settings: Homo sapiens, one dose 10^-5 M, 48 h
[51] = system: HCT-116; assay type: cell-based; settings: Homo sapiens, one dose 10^-5 M, 48 h, read-out: % growth
[52] = system: NCI/ADR-RES; assay type: cell-based; settings: Homo sapiens, one dose 10^-5 M, 48 h
[53] = system: OVCAR-4; assay type: cell-based; settings: Homo sapiens, one dose 10^-5 M, 48 h
[54] = system: A498; assay type: cell-based; settings: Homo sapiens, one dose 10^-5 M, 48 h
[55] = system: EKVX; assay type: cell-based; settings: Homo sapiens, one dose 10^-5 M, 48 h
[56] = system: CCRF-CEM; assay type: cell-based; settings: Homo sapiens, one dose 10^-5 M, 48 h
[57] = system: SF-268; assay type: cell-based; settings: Homo sapiens, one dose 10^-5 M, 48 h, read-out: % growth
[58] = system: SK-MEL-5; assay type: cell-based; settings: Homo sapiens, one dose 10^-5 M, 48 h, read-out: % growth
[59] = system: M14; assay type: cell-based; settings: Homo sapiens, one dose 10^-5 M, 48 h

`CN(C)c1ccc(-c2nc(S)nc(N)c2C#N)cc1` [Compound 1a] showed a % growth at 10 µM [1] of 109%, a % growth at 10 µM [2] of 94% and a % growth at 10 µM [3] of 121%. For the same compound, the activity at 10 µM [4] was 103%, the % growth at 10 µM [5] was 94% and the activity at 10 µM [6] was 113%. The % growth at 10 µM [7] was 90.6%, the % growth at 10 µM [8] was 94.4% and the % growth at 10 µM [9] was 102%. For the same compound, the % growth at 10 µM [10] was 107%, the % growth at 10 µM [11] was 92.4% and the % cell growth at 10 µM [12] was 103%. It also gave a % cell growth at 10 µM [13] of 111%, a % growth at 10 µM [14] of 89.8% and an activity at 10 µM [15] of 100%. The % cell growth at 10 µM [16] was 85.4%, the activity at 10 µM ([17]; Homo sapiens, 60 cell, 48 h, read-out: Mean % growth) was 96.6% and the “activity on all 60 cancer cell lines tested (in words)” value ([17]; one dose) was “weak activity”. For the same compound, the % growth at 10 µM [18] was 96%, the % growth at 10 µM [19] was 105% and the % growth at 10 µM [20] was 107%. It also gave a percent cell growth at 10 µM [21] of 102%, a % growth at 10 µM [22] of 98% and an activity at 10 µM [23] of 75.6%. For the same compound, the % growth at 10 µM [24] was 77.2%, the % cell growth at 10 µM [25] was 83.8% and the % growth at 10 µM [26] was 96.5%. For the same compound, the % growth at 10 µM [27] was 117%, the activity at 10 µM [28] was 95% and the activity at 10 µM [29] was 85.6%. The % growth at 10 µM [30] was 98.4%, the % growth at 10 µM [31] was 113% and the percent cell growth at 10 µM [32] was 60.2%. It also gave an activity at 10 µM [33] of 80.4%, a % growth at 10 µM [34] of 92.3% and an activity at 10 µM [35] of 92.6%. The % growth at 10 µM [36] was 90.7%, the % growth at 10 µM [37] was 79.7% and the percent cell growth at 10 µM [38] was 83%. The % growth at 10 µM [39] was 106%, the activity at 10 µM [40] was 100% and the % growth at 10 µM [41] was 80.5%. The % growth of cells at 10 µM [42] was 103%, the percent cell growth at 10 µM [43] was 108% and the % growth at 10 µM [44] was 123%. The activity at 10 µM [45] was 89.9%, the % growth at 10 µM [46] was 96% and the % cell growth at 10 µM [47] was 103%. It also gave a % growth at 10 µM [48] of 87.9%, an activity at 10 µM [49] of 86.4% and a percent cell growth at 10 µM [50] of 87.8%. It also gave an activity at 10 µM [51] of 91.9%, a cell growth percent at 10 µM [52] of 91.2% and a % growth at 10 µM [53] of 101%. For the same compound, the % growth at 10 µM [54] was 131%, the % cell growth at 10 µM [55] was 87.9% and the % cell growth at 10 µM [56] was 90.9%. It also gave an activity at 10 µM [57] of 104%, an activity at 10 µM [58] of 88.7% and a % growth at 10 µM [59] of 102%.

— publication PMC10866072, “Design, synthesis, molecular modelling and biological evaluation of novel 6-amino-5-cyano-2-thiopyrimidine derivatives as potent anticancer agents against leukemia and apoptotic inducers” (Journal of Enzyme Inhibition and Medicinal Chemistry, 2024)
